# Data published in patent US20160340659A1, “ACTIN BINDING PEPTIDES AND COMPOSITIONS COMPRISING SAME FOR INHIBITING ANGIOGENESIS AND TREATING MEDICAL CONDITIONS ASSOCIATED WITH SAME” (YISSUM RESEARCH AND DEVELOPMENT COMPANY OF THE HEBREW …, priority 2014, published 2016).
# Entries after “also recorded” stand apart in the source; their conditions may differ. Marks after values point to notes of the source that are not given here. Where no end group is shown, it is not given here.
# Experiments:
# actin = actin (Oryctolagus cuniculus, UniProt P68135); test: Actin binding solid phase assay; details: immobilized actin, 0-500 ng/100 μl well
# Procedure: 96-well plates (MaxiSorp® flat-bottom 96-well plate, Fisher Scientific Inc., Fair Lawn, N.J.) were coated with 500 ng actin in 100 μl carbonate-bicarbonate buffer (pH 9.5) for 1 h at 37° C. The plate was washed once with TBS and then blocked with 3% BSA in 200 μl TBS buffer at 37° C., for 1 h. Wells were then washed once with 250 μl TBS. trT2-49, trT2-49m or each of the 29 peptides were added at 1:2 dilutions in 100 μl TBS, starting from 500 ng/well, incubated for 1 h at 37° C. and then washed three times with TBS containing 0.1% Tween-20 (TBST). Each well was then treated with 100 μl rabbit anti-trT2-49 diluted 1:500 in TBS and incubated for 1 h at 37° C. The wells were washed three times with TBST and then incubated with 100 μl goat anti-rabbit IgG-HRP (Jackson ImmunoResearch, West Grove, Pa.) diluted 1:10,000 in TBS, for 1 h at 37° C. Wells were then washed twice with TBST, and once with TBS before 100 μl substrate (1-step Ultra TMB-ELISA, Pierce, Fisher Scientific Inc.) were added. Absorbance at 655 nm was measured 10 min thereafter using a Power Wave 200 Microplate Scanning Spectrophotometer (Bio-Tek Instrument, Winooski, Vt.). Affinity was evaluated by double reciprocal plotting.
# HUVEC = HUVEC tube formation assay on Matrigel; type: cell-based, human; details: peptides at 2 μM, compared to Control; for inhibition of VEGF-induced tube formation: 1 μg/ml VEGF; for inhibition of angiogenin-induced tube formation: 1 μg/ml angiogenin
# Procedure: FIGS. 6A-6D illustrate in-vitro inhibition of angiogenesis in the HUVEC model by T2 peptides. HUVEC cells plated on Matrigel™ were exposed to 2 μM of T2 peptides A103-Q159 (SEQ ID NO: 60), K108-K133 (SEQ ID NO: 57) or K108-L123 (SEQ ID NO: 67), in addition to 1 μg/ml of angiogenin or VEGF as the angiogenic agent, as indicated. Control wells received PBS. FIG. 6B-Results were assessed by imaging software, and quantified, and expressed relative to tube formation with angiogenin or VEGF alone (100%) Column 1=angiogenin, column 2=angiogenin+SEQ ID NO: 60, column 3=angiogenin+SEQ ID NO: 57, column 4=angiogenin+[…], Column 5=VEGF, column 6=VEGF+SEQ ID NO: 60, column 7=VEGF+SEQ ID NO: 57, column 8=VEGF+[…]. FIGS. 6C and 6D illustrate the inhibitory effect of truncated human T2 polypeptide trT2-49m (SEQ ID NO: 129) on angiogenin and VEGF induced HUVEC tube formation. Note the significant inhibition of HUVEC tube formation by all of the T2 peptides assayed, and in particular, K108-K133 (SEQ ID NO: 57);
# HUVEC (CC-2519)(fresh or commercially provided) are maintained in M199 rrrediurn supplemented with 20% FCS, 1% glutamine, 1% antibiotic-antimycotic solution, ECGF, and heparin, plated in a 96-well plate (14×10^3 cells/well) previously coated with growth factor-depleted Matrigel™ (BD Biosciences), in M199 medium containing 5% FCS and 0.005% ECGF. The wells are supplemented with candidate T2 RNase peptides or PBS, and angiogenic growth factors (1 μg/ml angiogenin, bFGF or VEGF) to a final volume of 120 pl. Plates are incubated (overnight), photographed and the extent of tube formation (angiogenesis) assessed.
# [1] = system: Super metastatic A375SM cells; test: A375SM xenograft tumor model in athymic nude mice; type: in vivo, mouse; details: for Tumor Weight: excised tumors at end
# Procedure: Female Hds-athymic nude mice (Harlan, Rehovot, Israel) were housed in laminar flow cabinets under specific pathogen-free conditions. Experiments were performed on mice at 7-8 weeks of age. The Animals were maintained in facilities approved by the Ethics Committee for Animal Experimentation, The Israeli Ministry of Health.
# Subcutaneous tumors were produced by injecting 2.5×10^5 Super metastatic A375SM cells (single-cell suspensions, >95% viability by a trypan blue exclusion test) in 0.2 ml of Hanks' buffered salt solution into the left flank of each mouse. Tumor growth was recorded three times weekly with a caliper and calculated as a×b^2/2 cm^3 (a, long diameter; b, short diameter). Treatments commenced when tumors arrived to about 100 mm^3 volumes, as follows (iv=intravenous; it=intra-tumor, direct injection, q3×6=three times per week for six weeks, […]):
# Each group comprised 10 mice. At the end of experiment, tumors were excised, weighed, and prepared for histopathological examination.
# Sections from the excised tumors were examined for athological changes, using Hematoxylin-Eosin staining (nuclei stain blue) and FragEL™ TdT DNA Fragmentation Detection stain (Calbiochem, EMD Millipore, MA) for visualizing apoptotic nuclei.
# [2] = 2.5 mg/kg intratumoral, three times per week
# [3] = 2.5 mg/kg iv, three times per week
# [4] = 5 mg/kg iv, three times per week
sequence,measurement,setting,value
ALNSQKKYFGRSLELYRELDLNSVLLKLGIKPSINYYQVADFKDALARVYGVIPKIQ [SEQ ID NO: 60],actin binding in solid-phase assay,actin; listed as A103-Q159,most effective actin binding peptides amongst the 29 candidate peptides; also recorded: effective and concentration-dependent binding of actin
same,inhibition of VEGF-induced tube formation,HUVEC,~40%
same,inhibition of angiogenin-induced tube formation,HUVEC,~40%
"KKYFGRSLELYRELDLNSVLLKLGIK [SEQ ID NO: 57, 26-amino acid peptide representing amino acids 108-133 of RNASET2]",actin binding in solid-phase assay,actin; listed as K108-K133,most effective actin binding peptides amongst the 29 candidate peptides; also recorded: effective and concentration-dependent binding of actin
same,tumor volume (tumor growth),"[1]; 2.5 mg/kg intra-tumor, three times per week, vs PBS control",Increasing inhibition of tumor growth
same,tumor apoptosis (FragEL stain of tumor sections),[1]; [2],abundant apoptosis
same,tumor vascular structures (H&E sections),[1]; [2],tumor cells can be seen accumulating towards the blood vessels
same,tumor apoptosis (FragEL stain of tumor sections),"[1]; 2.5 mg/kg iv, daily",heightened apoptosis
same,tumor vascular structures (H&E sections),"[1]; 2.5 mg/kg iv, daily",significant disruption of tumor histology and vascular structures
same,tumor volume (tumor development),"[1]; 2.5 mg/kg iv, daily for six weeks, vs PBS control",increased the rate of tumor development
same,tumor apoptosis (FragEL stain of tumor sections),[1]; [3],abundant apoptotic cells
same,tumor vascular structures (H&E sections),[1]; [3],visible disruption of the endothelial structure
same,tumor volume (tumor development),"[1]; 2.5 mg/kg iv, three times per week for six weeks, vs PBS control",trend of increasing inhibition of tumor development
same,Tumor Weight,[1]; 2.5 mg/kg q7x6 iv,3469 ± 648^a
same,tumor apoptosis (FragEL stain of tumor sections),[1]; [4],an increase in apoptotic rate
same,tumor vascular structures (H&E sections),[1]; [4],only partial disruption of the endothelial cell structures
same,tumor growth,"[1]; 5 mg/kg iv, three times per week, vs PBS control",no visible significant effect on tumor growth
same,Tumor Weight,[1]; 5 mg/kg q3x6 iv,1798 ± 385^b
same,tumor apoptosis (FragEL stain of tumor sections),"[1]; 7.5 mg/kg iv, three times per week",an increase in apoptotic rate
same,tumor vascular structures (H&E sections),"[1]; 7.5 mg/kg iv, three times per week, relative to PBS controls","A small, if any effect"
same,tumor growth,"[1]; 7.5 mg/kg iv, three times per week, vs PBS control",no visible significant effect on tumor growth
same,Tumor Weight,[1]; 7.5 mg/kg q3x6 iv,1471 ± 418^b
same,inhibition of VEGF-induced tube formation,HUVEC,~75%
same,inhibition of angiogenin-induced tube formation,HUVEC,~50%
